Assay results: patent US12565475B2, “Small molecule compound inhibiting signal transmission path of TLR7 and TLR9 and use thereof” (AJOU UNIVERSITY INDUSTRY-ACADEMIC COOPERATION FOUNDATION, priority 2019, dated 2026)

Molecular target: T1, TLR8 (Homo sapiens, UniProt Q9NR97)
T1 construct: treated with TIC10-7 for 1 hour, and then treated with TL8-506 as a TLR8 agonist for 4 hours; endogenous in cells; host or cells: THP-1 differentiated with PMA
T1 sequence (Q9NR97 27-1041): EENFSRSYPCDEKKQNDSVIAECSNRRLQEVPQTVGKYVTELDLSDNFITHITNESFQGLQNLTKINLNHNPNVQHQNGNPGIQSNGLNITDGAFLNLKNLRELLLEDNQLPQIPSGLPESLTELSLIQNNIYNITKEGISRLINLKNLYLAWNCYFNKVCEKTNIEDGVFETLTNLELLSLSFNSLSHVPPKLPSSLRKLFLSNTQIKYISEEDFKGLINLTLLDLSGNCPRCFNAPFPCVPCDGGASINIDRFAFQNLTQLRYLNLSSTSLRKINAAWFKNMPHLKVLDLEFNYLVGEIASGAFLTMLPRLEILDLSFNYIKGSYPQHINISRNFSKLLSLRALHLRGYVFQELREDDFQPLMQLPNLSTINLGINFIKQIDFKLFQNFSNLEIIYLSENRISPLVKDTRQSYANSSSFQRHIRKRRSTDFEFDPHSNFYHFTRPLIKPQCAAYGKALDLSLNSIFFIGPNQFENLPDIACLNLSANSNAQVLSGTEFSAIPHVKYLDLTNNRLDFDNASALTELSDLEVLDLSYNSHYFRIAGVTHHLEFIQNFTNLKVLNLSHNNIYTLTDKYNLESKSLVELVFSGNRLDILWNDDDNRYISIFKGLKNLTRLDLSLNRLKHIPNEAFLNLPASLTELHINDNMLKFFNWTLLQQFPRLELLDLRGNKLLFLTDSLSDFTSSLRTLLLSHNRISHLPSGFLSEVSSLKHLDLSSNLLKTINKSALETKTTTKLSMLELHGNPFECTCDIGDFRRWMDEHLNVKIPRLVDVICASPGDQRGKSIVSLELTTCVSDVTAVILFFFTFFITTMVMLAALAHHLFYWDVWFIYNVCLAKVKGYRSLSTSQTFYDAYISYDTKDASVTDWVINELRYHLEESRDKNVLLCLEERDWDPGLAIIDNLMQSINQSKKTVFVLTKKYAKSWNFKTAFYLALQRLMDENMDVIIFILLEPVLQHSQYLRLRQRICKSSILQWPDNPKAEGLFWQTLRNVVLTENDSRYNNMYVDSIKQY
Assay: TLR8-mediated TNF-α secretion (TL8-506) in PMA-differentiated THP-1 cells, ELISA
Type: cell-based
Details: differentiated THP-1, 10 or 20 μM
Experimental: A murine macrophage cell line (RAW 264.7) was obtained from the Korean Cell Line Bank (KCLB) and the Korean Cell Line Research Foundation (KCLRF). The cells were cultured in DMEM (Dulbecco's modified Eagle's medium; HyClone Laboratories, Inc., San Angelo, Texas, USA) supplemented with 1% penicillin/streptomycin (HyClone Laboratories, Inc.) antibiotic mixture and 10% fetal bovine serum (FBS; Thermo Fisher Scientific, Inc., Waltham, MA, USA). A human monocytic cell line (THP-1) was provided by Dr. Chang-Hee Suh, Ajou University School of Medicine, Suwon, Korea. […]
Agonists specific to TLR1/TLR2 (Pam3CSK4), TLR2/TLR6 (FSL-1), TLR3 (Poly I:C), TLR7 (imiquimod), and TLR8 (TL8-506) were purchased from InvivoGen Ltd. (Hong-Kong, China), and a TLR4-specific agonist (LPS from E. coli O111:B4) was purchased from Sigma-Aldrich, Inc. For TLR9-specific stimulation, class C CpG-ODN (ODN2395, 5′-TCGTCGTTTTCGGCGCGCGCCG-3′) having full phosphorothioate backbone modification was synthesized (Bioneer, Inc., Daejeon, Korea). […] The cells were treated with test compounds or a control medium for 1 hour, and then stimulated with a TLR agonist for 4 hours, or 24 hours in the case of poly(I:C), and the cytokine secretion was monitored. […]

TLR8-mediated TNF-α secretion: least affected
Structure (SMILES): COc1ccc(CNc2ncc(-c3ccc4c(c3)OCO4)n2C)c(OC)c1 [TIC10-7, 5-(2H-1,3-benzodioxol-5-yl)-N-[(2,4-dimethoxyphenyl)methyl]-1-methyl-1H-imidazol-2-amine]
